Test results from patent US8742113B2, “Furanone derivative” (SBI Biotech Co., Ltd., priority 2011, dated 2014).
Read-outs that look alike come from different tables or passages of the source.

Key:
[1] = tested on: MCM2 phosphorylation in COLO205 cells; test: Inhibitory effect on MCM2 phosphorylation using cells (Western blot); assay type: cell-based; conditions: Homo sapiens, COLO 205, 0.1 μM test compound, 24 hours, class by percent phosphorylation of MCM2, read-out: Test Example 2 Inhibitory effect on MCM2 phosphorylation
Experimental: [Inhibitory Effect on Phosphorylation Using Cells]
COLO205 cells derived from human colon adenocarcinoma (RCB2127, RIKEN BRC) were cultured in 10 cm dishes using RPMI-1640 medium (SIGMA, R8758) supplemented with 10% FCS (Equitech-bio) and 5% penicillin/streptomycin (GIBCO, 15140). After the cells were cultured to a confluence of 70 to 90%, the medium was removed, and the cells were treated with trypsin (2 mL, TrypLE Express, GIBCO, 12604-021) and then harvested using a new medium.
COLO205 cells were seeded in 6-well plates (FALCON, 35046) to 2.5×10^5 cells (1 ml) per well and cultured overnight in a 5% CO2 incubator. A drug solution, which was prepared by adding 1.5 μl of a 0.1-mM stock solution in DMSO of a test compound to 500 μl of medium, was added to each well (to a final drug concentration of 0.1 μM), and then cultured for another 24 hours.
Cells were cultured for 24 hours in the presence of a test compound, harvested using a similar way as described above, washed with PBS, and then pelletized and stored at −80° C. The frozen cells were thawed, subsequently suspended immediately in 2×SDS-PAGE electrophoresis buffer (1×10^5 cells per 10 μl), and heated at 95° C. for 10 minutes, leading to the dissolution and denaturation of the proteins. The resulting sample solutions were subjected to SDS-PAGE using a 5-20% gradient acrylamide gel (e-PAGEL (5-20%), ATTO, E-T520L). After the electrophoresis was completed, the gel was immersed in tris-glycine buffer supplemented with 20% methanol, and the proteins in the gel were transferred onto a PVDF membrane (MILLIPORE, Immobilon-P, IPVH00010) using a semi-dry transfer apparatus (TRNS-BLOT SD SEMI-DRY […] CELL, BIO RAD).
The transferred PVDF membrane was blocked with 5% skim milk (Difco Skim Milk, BD, 232100), and then subjected to reaction with an anti-MCM2 goat antibody (N-19, Santa Cruz, sc-9839) or anti-phosphorylated MCM2 rabbit antibody (S53) (Bethyl, A300-756A) as a primary antibody and additionally with an anti-α tubulin mouse antibody (Clone DM 1A, SIGMA, 9026) as an internal control. Each band was detected by chemiluminescence using an HRP-labeled anti-goat IgG donkey antibody (Santa Cruz, sc2020), anti-rabbit IgG sheep antibody (Roche, 12015218001), or anti-mouse IgG donkey antibody (Jackson ImmunoResearch, 715-035-151) as a secondary antibody. The combinations of and the diluted concentrations of the primary and secondary antibodies were as indicated below.
The bands which were detected were normalized using the amount of endogenous α-tubulin as a reference, and the percent phosphorylation of MCM2 was calculated for each of the tested compounds. Their inhibitory effects on MCM2 phosphorylation were indicated by a triple asterisk (***) in the case where the percent phosphorylation of MCM2 was less than 20%, by a dual asterisk (**) in the case where the percent phosphorylation of MCM2 was not less than 20% and less than 50%, and by a single asterisk (*) in the case where the percent phosphorylation of MCM2 was not less than 50% and less than 70%.

[2] = target: human Cdc7/human ASK complex protein (Homo sapiens (Human), UniProt O00311); test: Inhibitory effect on Cdc7 protein kinase (MSA assay kit); assay type: biochemical
Sequence of human Cdc7/human ASK complex protein (O00311 whole entry): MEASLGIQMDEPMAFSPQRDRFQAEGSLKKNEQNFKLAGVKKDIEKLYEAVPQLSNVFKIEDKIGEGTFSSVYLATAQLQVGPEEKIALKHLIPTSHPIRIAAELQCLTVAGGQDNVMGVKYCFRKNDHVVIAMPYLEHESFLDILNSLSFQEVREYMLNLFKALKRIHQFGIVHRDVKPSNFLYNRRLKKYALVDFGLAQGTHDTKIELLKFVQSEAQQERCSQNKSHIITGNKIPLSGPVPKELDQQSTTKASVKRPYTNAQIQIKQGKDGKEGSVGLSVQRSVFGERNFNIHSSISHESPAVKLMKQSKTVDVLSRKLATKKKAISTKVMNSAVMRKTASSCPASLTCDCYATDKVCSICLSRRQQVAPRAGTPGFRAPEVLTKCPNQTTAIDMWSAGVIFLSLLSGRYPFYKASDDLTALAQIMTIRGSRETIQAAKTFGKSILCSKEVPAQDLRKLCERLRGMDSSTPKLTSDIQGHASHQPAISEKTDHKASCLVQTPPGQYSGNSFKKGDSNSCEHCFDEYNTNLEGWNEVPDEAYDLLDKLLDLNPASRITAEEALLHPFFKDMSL
Sequence of human Cdc7/human ASK complex protein (Q9UBU7 whole entry partner): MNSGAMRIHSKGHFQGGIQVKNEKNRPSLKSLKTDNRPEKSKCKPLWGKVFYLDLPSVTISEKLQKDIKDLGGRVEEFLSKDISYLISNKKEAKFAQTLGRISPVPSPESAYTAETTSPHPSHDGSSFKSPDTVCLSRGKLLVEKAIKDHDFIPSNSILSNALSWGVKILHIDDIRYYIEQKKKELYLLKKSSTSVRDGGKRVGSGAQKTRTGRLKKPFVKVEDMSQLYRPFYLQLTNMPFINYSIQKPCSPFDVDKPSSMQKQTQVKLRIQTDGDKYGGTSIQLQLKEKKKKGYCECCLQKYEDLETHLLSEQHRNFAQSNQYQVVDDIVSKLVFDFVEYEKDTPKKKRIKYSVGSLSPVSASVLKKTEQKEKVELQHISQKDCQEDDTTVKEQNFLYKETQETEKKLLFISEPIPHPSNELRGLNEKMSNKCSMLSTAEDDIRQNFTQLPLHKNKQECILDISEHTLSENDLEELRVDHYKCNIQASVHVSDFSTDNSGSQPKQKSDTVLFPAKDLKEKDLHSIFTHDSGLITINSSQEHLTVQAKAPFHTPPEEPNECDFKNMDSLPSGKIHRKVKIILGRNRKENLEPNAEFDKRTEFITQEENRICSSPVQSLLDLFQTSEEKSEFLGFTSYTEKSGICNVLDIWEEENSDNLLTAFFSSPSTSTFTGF
Experimental: [Inhibitory Effect on Cdc7 Protein Kinase]
Measurement of kinase activity was carried out using an MSA assay kit (QuickScout Screening Assist™ Kit, Carna Biosciences, Inc.).
Assay buffer (20 mM HEPES, 0.01% Triton X-100™, 2 mM dithiothreitol, pH 7.5) was used to prepare a substrate mixture solution comprising 4 μM of a kinase-reaction substrate (FITC-labeled MCM2 peptide), 40 mM MgCl2, and 20 μM ATP.
The enzyme supplied in the kit (human Cdc7/human ASK complex protein) was diluted in the assay buffer so as to be at 7 nM, thereby preparing an enzyme solution.
The stock solution of each test compound was diluted in DMSO to prepare diluted DMSO solutions of 10 concentrations (0.00003 mM, 0.0001 mM, 0.0003 mM, 0.001 mM, 0.003 mM, 0.01 mM, 0.03 mM, 0.1 mM, 0.3 mM, 1 mM), each of which was further diluted 25 times in the assay buffer to make a drug solution (a solution containing 4% DMSO).
The kinase reaction was performed in wells of a polypropylene 384-well plate in which 5 μl of each of the drug solutions or of a solvent (assay buffer containing 4% DMSO), 5 μl of the substrate mixture solution, and 10 μl of the enzyme solution were mixed. The assay buffer, instead of the enzyme solution, was added to blank wells. After the reaction at room temperature for 5 hours, 60 μl of the termination buffer supplied in the kit was added to each well to stop the reaction. The percent inhibition of each reaction was determined using a LabChip EZ Reader II system (manufactured by Caliper Life Sciences), according to the protocol provided with the assay kit. In this case, the peak heights of the separated substrate and the phosphorylated substrate were represented as S and P, respectively, and the percent inhibition (%) by a tested compound was calculated according to the following formula: Percent inhibition(%)=(1−(C−A)/(B−A))×100 wherein A denotes P/(P+S) for a blank well, B denotes P/(P+S) for a solvent well, and C denotes P/(P+S) for a compound-added well.
The IC50 value of a tested compound was calculated by regression analysis of the percent inhibition values versus the (logarithmic) concentrations of the tested compound.

[3] = human Cdc7/human ASK complex, FITC-labeled MCM2 peptide substrate, reaction 5 hours at room temperature, read-out: Test Example 1 Cdc7 IC50 value

Row | IC50 [2, 3] | IC50 [2] | SMILES | inhibition at 0.1 µM [1]
1 | 2 nM | – | CCOC(=O)C1=C(Nc2ccccc2Cl)O/C(=C\c2c[nH]c3ncccc23)C1=O [Example 15, Ethyl 5-[(1H-pyrrolo[2,3-b]pyridin-3-yl)methylene]-2-[(2-chlorophenyl)amino]-4-oxo-4,5-dihydrofuran-3-carboxylate] | 20 to 50%
2 | – | – | O=C(O)C1=C(Nc2ccccc2)O/C(=C\c2c[nH]c3ncccc23)C1=O [Example 22, 5-[(1H-Pyrrolo[2,3-b]pyridin-3-yl)methylene]-4-oxo-2-(phenylamino)-4,5-dihydrofuran-3-carboxylic acid] | 50 to 70%
3 | – | – | CCOC(=O)C1=C(N2CCCCCC2)O/C(=C\c2c[nH]c3ncccc23)C1=O [Example 63] | < 20%
4 | 4 nM | – | CCOC(=O)C1=C(Nc2ccc3cn[nH]c3c2)O/C(=C\c2c[nH]c3ncccc23)C1=O [Example 68, Ethyl 5-[(1H-pyrrolo[2,3-b]pyridin-3-yl)methylene]-2-[(6-indazolyl)amino]-4-oxo-4,5-dihydrofuran-3-carboxylate] | < 20%
5 | 11 nM | – | CCOC(=O)C1=C(N2CCC(C)CC2)O/C(=C\c2c[nH]c3ncccc23)C1=O [Example 78, Ethyl 5-[(1H-pyrrolo[2,3-b]pyridin-3-yl)methylene]-2-(4-methylpiperidino)-4-oxo-4,5-dihydrofuran-3-carboxylate] | < 20%
6 | 5 nM | – | CCOC(=O)C1=C(Nc2ccc(OCCO)cc2F)OC(=Cc2c[nH]c3ncccc23)C1=O [Example 81, Ethyl 5-[(1H-pyrrolo[2,3-b]pyridin-3-yl)methylene]-2-{[2-fluoro-4-(2-hydroxyethoxy)phenyl]amino}-4-oxo-4,5-dihydrofuran-3-carboxylate] | < 20%
7 | 3 nM | – | O=C(OCCCO)C1=C(Nc2ccc(F)cc2)O/C(=C\c2c[nH]c3ncccc23)C1=O [Example 89, 3-Hydroxypropyl 5-[(1H-pyrrolo[2,3-b]pyridin-3-yl)methylene]-2-[(4-fluorophenyl)amino]-4-oxo-4,5-dihydrofuran-3-carboxylate] | < 20%
8 | 4 nM | – | CN(C)CCOC(=O)C1=C(Nc2ccc(F)cc2F)O/C(=C\c2c[nH]c3ncccc23)C1=O [Example 91, 2-(Dimethylamino)ethyl 5-[(1H-pyrrolo[2,3-b]pyridin-3-yl)methylene]-2-[(2,4-difluorophenyl)amino]-4-oxo-4,5-dihydrofuran-3-carboxylate] | < 20%
9 | 4 nM | – | CCOC(=O)C1=C(N2CCc3ccccc3C2)O/C(=C\c2c[nH]c3ncccc23)C1=O [Example 102, Ethyl 5-[(1H-pyrrolo[2,3-b]pyridin-3-yl)methylene]-2-(3,4-dihydroisoquinolin-2(1H)-yl)-4-oxo-4,5-dihydrofuran-3-carboxylate] | < 20%
10 | 3 nM | – | CCOC(=O)C1=C(Nc2ccc(NCCO)cc2C)O/C(=C\c2c[nH]c3ncccc23)C1=O [Example 126, Ethyl 5-[(1H-pyrrolo[2,3-b]pyridin-3-yl)methylene]-2-({4-[(2-hydroxyethyl)amino]-2-methylphenyl}amino)-4-oxo-4,5-dihydrofuran-3-carboxylate] | < 20%
11 | 9 nM | – | CCOC(=O)C1=C(Nc2ccc(CN(C)C)cc2C)O/C(=C\c2c[nH]c3ncccc23)C1=O [Example 129, Ethyl 5-[(1H-pyrrolo[2,3-b]pyridin-3-yl)methylene]-2-({4-[(dimethylamino)methyl]-2-methylphenyl}amino)-4-oxo-4,5-dihydrofuran-3-carboxylate] | < 20%
12 | 3 nM | – | CCOC(=O)C1=C(NN2CCOCC2)O/C(=C\c2c[nH]c3ncccc23)C1=O [Example 142, Ethyl 5-[(1H-pyrrolo[2,3-b]pyridin-3-yl)methylene]-2-(morpholinoamino)-4-oxo-4,5-dihydrofuran-3-carboxylate] | 20 to 50%
13 | 3 nM | – | Cc1cc(OCCO)ccc1NC1=C(C(=O)OC(C)C)C(=O)/C(=C/c2c[nH]c3ncccc23)O1 [Example 157, Isopropyl 5-[(1H-pyrrolo[2,3-b]pyridin-3-yl)methylene]-2-{[4-(2-hydroxyethoxy)-2-methylphenyl]amino}-4-oxo-4,5-dihydrofuran-3-carboxylate] | 20 to 50%
14 | 3 nM | – | COCCOC(=O)C1=C(Nc2ccccc2Cl)O/C(=C\c2c[nH]c3ncccc23)C1=O [Example 173, 2-Methoxyethyl 5-[(1H-pyrrolo[2,3-b]pyridin-3-yl)methylene]-2-[(2-chlorophenyl)amino]-4-oxo-4,5-dihydrofuran-3-carboxylate] | < 20%
15 | 4 nM | – | O=C1C=C(NC2CCCCCC2)O/C1=C\c1c[nH]c2ncccc12 [Example 226, 2-[(1H-Pyrrolo[2,3-b]pyridin-3-yl)methylene]-5-(cycloheptylamino)furan-3(2H)-one] | < 20%
16 | 2 nM | – | Cc1cc(F)ccc1NC1=CC(=O)/C(=C/c2c[nH]c3ncccc23)O1 [Example 233, 2-[(1H-Pyrrolo[2,3-b]pyridin-3-yl)methylene]-5-[(4-fluoro-2-methylphenyl)amino]furan-3(2H)-one] | 20 to 50%
17 | – | 1 nM | O=C1C=C(Nc2ccc3[nH]ncc3c2)O/C1=C\c1c[nH]c2ncccc12 [Example 239, 2-[(1H-Pyrrolo[2,3-b]pyridin-3-yl)methylene]-5-[(5-indazolyl)amino]furan-3(2H)-one] | 20 to 50%
18 | – | 1 nM | Cc1ccsc1CNC1=CC(=O)/C(=C/c2c[nH]c3ncccc23)O1 [Example 242, 2-[(1H-Pyrrolo[2,3-b]pyridin-3-yl)methylene]-5-{[(3-methyl-2-thienyl)methyl]amino}furan-3(2H)-one] | < 20%
19 | 4 nM | – | CCOC(=O)C1=C(N2CCc3ccc(OC)cc3C2)O/C(=C\c2c[nH]c3ncccc23)C1=O [Example 244, Ethyl 5-[(1H-pyrrolo[2,3-b]pyridin-3-yl)methylene]-2-(7-methoxy-3,4-dihydroisoquinolin-2(1H)-yl)-4-oxo-4,5-dihydrofuran-3-carboxylate] | < 20%
